Data taken from US20240293416A1, “TREATMENT OF LIVER DISORDERS WITH A THR-ß AGONIST” (Terns Pharmaceuticals, Inc., priority 2021, published 2024).

Test system: mouse NASH model
Assay: High fat diet + CCl4 mouse NASH model
Assay type: in vivo, C57BL/6J mice
Description: C57BL/6J mice were fed a high fat diet for 10 weeks to induce obesity (>38 g BW). Obese mice were injected intraperitoneally (i.p.) twice a week for four weeks with 0.5 μl/g 25% CCl4 (formulated in olive oil) to induce fibrosis, and one group of normal BW mice were injected i.p. twice a week for four weeks with olive oil to serve as a healthy control. […] On CCl4 dosing days, CCl4 was administered at 4 hours post compound or vehicle dosing. On day 27, all animals were fasted for about 16 hours before terminal euthanasia. On day 28, all animals were sacrificed and various biological parameters were analyzed. Total body, liver, heart and brain weight were measured and changes in liver and heart weight were normalized using brain weight.
Liver samples were collected for whole transcriptome analysis by RNA sequencing (RNAseq). RNAseq library (n=5 per group) preparation and sequencing was performed using Illumina standard protocols. Alignment of sequencing reads was performed using STAR aligner software and read counts were estimated using RSEM. Differentially expressed genes (compared to vehicle-treated NASH control mice) were determined using EdgeR software. Gene ontology analysis was performed using Advaita software with fold-change and adjusted p-value cutoffs of >1.5 and <0.05, respectively. Gene ontologies were derived from the Gene Ontology Consortium database (2019 Apr. 26) (Ashburner et al., Gene ontology: Tool for the unification of biology. Nature Genetics 25(1): 25-9 (2000); Gene Ontology Consortium, Creating the Gene Ontology Resource: Design and Implementation. Genome Research 11: 1425-1433 (2001)).

Question: Which results are given for N#Cc1nn(-c2cc(Cl)c(Oc3n[nH]c(=O)c4ccccc34)c(Cl)c2)c(=O)[nH]c1=O [Compound 1, 2-(3,5-dichloro-4-((4-oxo-3,4-dihydrophthalazin-1-yl)oxy)phenyl)-3,5-dioxo-2,3,4,5-tetrahydro-1,2,4-triazine-6-nitrile]?
Answer: liver fibrosis (histology) (3 and 10 mpk, 28 days): significantly reduced liver fibrosis; liver inflammation (histology) (28 days): trend in inflammation reduction; liver steatosis (histology) (all doses tested, 28 days): significantly reduced steatosis at all doses tested; serum total cholesterol, triglycerides and ALT (all doses tested, 28 days): significantly reduced; expression of genes associated with collagen extracellular matrix and hepatic stellate cell activation (liver RNAseq vs NASH control mice): significant effect; liver/brain weight (orally once a day for 28 days): significantly reduced; total body weight or heart/brain weight (orally once a day for 28 days): no effect; steady state plasma AUC0-∞ sufficient to ensure efficacy (preclinical animal models): approximately 3,320 ng*hg/mL
